Columns and labels:
[1] = tested on: Naive T helper cells; assay: Secretion of pro-inflammatory cytokines (IFN-γ, TNF-α) from TCR-stimulated T helper cells, conditioned media; assay type: cell-based, human; conditions: seven days
Protocol: The effect of methods and compounds of the present invention on T helper cell secretion of pro-inflammatory cytokines was evaluated as follows. Naive T helper cells (AllCells LLC, Emeryville, Calif.) obtained from human cord blood were stimulated (i.e., T cell receptor (TCR) stimulation) by seeding into 96-well culture dishes coated with 5 μg/ml anti-CD3 antibody (clone UCHT1, R&D Systems, Minneapolis, Minn.) (Tanaka et.al. (1989) J Immunol 142:2791-2795.), and 5 μg/ml anti-CD28 antibody (clone ANC28.1/D10, Ancell Corporation, Bayport, Minn.), and cultured at 37° C., 5% CO2 in RPMI-1640 (Mediatech Inc., Herndon, Va.) containing 1% FBS, 1 U/ml penicillin-1 μg/ml streptomycin (Invitrogen Corporation, Carlsbad, Calif.), and 50 U/ml IL-2 (Roche Diagnostics Corporation, Indianapolis, Ind.). At the time of seeding, cells were cultured with media alone or with media containing 2 ng/ml IL-12 (R&D Systems, Minneapolis, Minn.) (to stimulate differentiation of the T helper cells into Th1 cells) and 10 μg/ml anti-IL4 antibody (R&D Systems, Minneapolis, Minn.) (to block differentiation of the T helper cells into Th2 cells). Compound A or 1% DMSO (Veh) was added to the existing media and the cells were cultured for an additional seven days. The conditioned media was then collected from the cell cultures and analyzed for interferon-gamma (IFN-γ) and tumor necrosis factor-alpha (TNF-α) levels using MS2400 Human Tissue Culture Cytokine Detection Kits (MesoScale Technologies, Gaithersburg, Md.) according to the manufacturer's instructions. In another series of experiments, the effect of methods and compounds of the present invention on T helper cell secretion of pro-inflammatory cytokines was evaluated as follows. Naive T helper cells were stimulated substantially as described above with the following modification: cell cultures contained 100 U/ml penicillin-100 U/ml streptomycin. Various compounds of the present invention or 1% DMSO (Veh) was added to the existing media and the cells were cultured for an additional six days. Following stimulation with IL-12, conditioned media was then collected from the cell cultures and analyzed for interferon-gamma (IFN-γ) levels using MS2400 Human Tissue Culture Cytokine Detection Kits (MesoScale Technologies, Gaithersburg, Md.) according to the manufacturer's instructions.

[2] = tested on: naïve T helper cells; assay: T helper cell number and viability (Guava ViaCount); assay type: cell-based, human; conditions: day 7
Protocol: To examine the effect of compounds and methods of the present invention on T helper cell number and viability, the following studies were performed. Human cord blood naive T helper cells (AllCells LLC, Emeryville, Calif.) were stimulated (i.e., T cell receptor (TCR) stimulation) by seeding into 96-well culture dishes coated with 5 μg/ml anti-CD3 antibody (clone UCHT1, R&D Systems, Minneapolis, Minn.), and 5 μg/ml anti-CD28 antibody (clone ANC28.1/D10, Ancell Corporation, Bayport, Minn.), and cultured at 37° C, 5% CO2 in RPMI-1640 (Mediatech Inc., Herndon, Va.) containing 1% FBS, 1 U/ml penicillin-1 μg/ml streptomycin (invitrogen Corporation, Carlsbad, Calif.), and 50 U/ml IL-2 (Roche Diagnostics Corporation, Indianapolis, Ind.). […] The T helper cells were then collected and cell number and cell viability were analyzed using Guava ViaCount reagents and the Guava PCA System (Guava Technologies, Hayward, Calif.).
In another set of experiments, the effect of compounds and methods of the present invention on T helper cell number and viability was determined. […] The T helper cells were then collected and cell number and cell viability were analyzed using Guava ViaCount reagents and the Guava PCA System (Guava Technologies, Hayward, Calif.).

[3] = TCR-stimulated T helper cells with 2 ng/ml IL-12 and anti-IL4 antibody, vs IL-12 and vehicle
[4] = TCR-stimulated T helper cells, without IL-12 addition, vs vehicle

Question: How did the “IL-12-induced increase in IFN-γ levels” value [1, 3] turn out when `Cc1nc(C(=O)NCC(=O)O)c(O)c2ccc(Oc3ccccc3)cc12` [Compound A, [(4-Hydroxy-1-methyl-7-phenoxy-isoquinoline-3-carbonyl)-amino]-acetic acid] was run?
Answer: inhibited the increase

Question: And the “IL-12-induced increase in TNF-α levels” value [1, 3]?
Answer: inhibited the increase

Question: And the “IFN-γ levels in the conditioned media” value [1, 4]?
Answer: reduction

Question: What about the “TNF-α levels in the conditioned media” value [1, 4] of the same compound?
Answer: reduction

Question: And the “percent of viable T helper cells” value [2]?
Answer: did not decrease

Question: And the “total number of viable T helper cells” value [2]?
Answer: did not decrease

From patent US20100144737A1, “METHODS FOR INHIBITING T HELPER CELL DIFFERENTIATION” (FibroGen, Inc., priority 2008, published 2010)
